Source: patent publication US11266717B2, “Diagnosis, prevention, and/or treatment of autoimmune diseases” (priority 2016, dated 2022)
Non-standard residues stand in square brackets, D forms with d. Residues, ends and D or L forms follow the SMILES beside them. *: point of attachment. Dolaproine = CO[C@@H]([C@@H]1CCCN1)[C@@H](C)C(=O)O; Dil = CC[C@H](C)[C@H](NC)[C@@H](CC(=O)O)OC; X1 = C[C@@H](N*)[C@@H](O)c1ccccc1; NMeV = CN[C@H](C(=O)O)C(C)C

How the values were obtained:
[1] = system: PLA2R-epitope specific memory B cells isolated from PMN patients; assay: Elimination of PLA2R-epitope specific memory B cells: 24 h preincubation, then PLA2R-epitope-FITC staining; format: cell-based, human; settings: preincubation 24 h; then PLA2R-epitope-FITC 1 h at 4° C.; FIG. 25
Procedure: (§1) In some embodiments, the efficacy of an EDC may be tested in vitro using patient samples prior to administering the EDC to patients. For example, the efficacy of an EDC is tested on isolated B cells from patient peripheral blood mononuclear cells (PBMCs) (FIG. 25; Example 6, and FIG. 30; Example 9). An EDC comprising a fluorophore (e.g., FITC) is used detect the presence of autoantibody-producing B cells in patient samples (left panels in FIG. 25 (MN patient samples) and FIG. 30 (Pemphigus vulgaris patient samples) prior to exposing the samples to an EDC comprising a cytotoxic drug. The patient samples are then treated with an EDC comprising a cytotoxic drug (e.g., MMAE). The EDC comprising the fluorophore is then used determine the efficacy of the EDC comprising a cytotoxic drug of autoantibody-producing B cells in patient samples (middle panels in FIG. 25 (MN patient samples) and FIG. 30 (Pemphigus vulgaris patient samples)).
The efficacy of the PLA2R-epitope-MMAE on eliminating the PLA2R-epitope specific memory B cells isolated from PMN patients was assessed. MMAE is a potent cytotoxic agent that blocks tubulin polymerization causing cell death. MMAE has been used to develop an antibody-drug conjugate, Brentuximab vedotin (trade name Adcetris) for lymphoma treatment, and was approved by FDA in 2011. […]

[2] = system: Dsg1 and Dsg3-epitope specific memory B cells isolated from mucocutaneous PV patients; assay: Elimination of Dsg1 and Dsg3-epitope specific memory B cells: 24 h preincubation, then Dsg1 and Dsg3-epitope-FITC staining; format: cell-based, human; settings: preincubation 24 h; then Dsg1 and Dsg3-epitope-FITC 1 h at 4° C.; FIG. 30
Procedure: as §1
The efficacy of the Dsg1 and Dsg3 epitope conjugated to MMAE to eliminate Dsg1 and Dsg3-epitope specific memory B cells, respectively, isolated from the mucocutaneous PV patients was assessed. Total B cells isolated from patient peripheral blood were cultured overnight in RPMI medium and then split equally into two wells on a 12 well cell culture plate (2 ml/per well). […]

[3] = system: anti-PLA2R autoantibodies; assay: Western blot of PLA2R-epitope proteins probed with patient serum containing anti-PLA2R autoantibodies; format: binding, human; settings: SDS-PAGE under non-reducing condition
Source text: (§2) The construct was then expressed in the HEK293 cells and the epitope protein was purified using nickel and gel filtration columns followed with TEV cleavage to remove the His-tag. The protein was then coupled with a fluorescent agent (eg. FITC) or a cytotoxic reagent (eg. Monomethyl auristatin E (MMAE)).
In a separate experiment (FIG. 23; bottom right), equal amount of epitope, FITC conjugated epitope and MMAE conjugated epitope proteins were resolved on a SDS-PAGE under the non-reducing condition, transferred to a membrane, and probed by a patient serum containing anti-PLA2R autoantibodies. The unconjugated and the conjugated PLA2R-epitope proteins were resolved on a 4-20% SDS-PAGE under the non-reducing condition and probed with a patient serum containing anti-PLA2R autoantibodies (FIG. 23, bottom right).
as §2, with “(MMAE)) (FIG. 23).” for “(MMAE)).”

| Molecule | staining of B cells with PLA2R-epitope-FITC after preincubation (elimination of PLA2R-epitope specific memory B cells) [1] | staining of B cells with Dsg1 and Dsg3-epitope-FITC after preincubation (elimination of Dsg1 and Dsg3-epitope specific memory B cells) [2] | reaction/binding with anti-PLA2R autoantibodies (Western blot) [3] | reaction/binding with anti-PLA2R autoantibodies (Western blot) ([3]; listed as modified PLA2R-epitope) | reaction/binding with anti-PLA2R autoantibodies (Western blot) ([3]; listed as unconjugated PLA2R-epitope) |
| --- | --- | --- | --- | --- | --- |
| CC[C@H](C)[C@@H]([C@@H](CC(=O)N1CCC[C@H]1[C@H](OC)[C@@H](C)C(=O)N[C@H](C)[C@@H](O)c1ccccc1)OC)N(C)C(=O)[C@@H](NC(=O)[C@@H](NC)C(C)C)C(C)C [MMAE, Monomethyl auristatin E, reference compound] (H-[NMeV]V[Dil][Dolaproine]-X1) | a number of B cells being stained | a number of B cells being stained |  |  |  |
| PLA2R-epitope: PLA2R CysR, FnII and CTLD1 domains with free cysteine engineered into the C-terminal tail, expressed in HEK293 cells, about 37 kDa |  |  | strongly reacted | strongly reacted | strongly |
